{"source": "patent US9187426B2", "about": "“Organic compounds” (Novartis AG, priority 2008, dated 2015)", "key": {"[1]": {"target": "T1, Stearoyl-CoA Desaturase (SCD1) (Mus musculus, UniProt P13516)", "T1 construct": "Reactions are started by adding 50 μL of microsomes (1.25 mg/mL); from tissue; host or cells: liver microsomes of male ICR outbred mice on a high-carbohydrate, low-fat diet", "T1 sequence (P13516 1-355)": "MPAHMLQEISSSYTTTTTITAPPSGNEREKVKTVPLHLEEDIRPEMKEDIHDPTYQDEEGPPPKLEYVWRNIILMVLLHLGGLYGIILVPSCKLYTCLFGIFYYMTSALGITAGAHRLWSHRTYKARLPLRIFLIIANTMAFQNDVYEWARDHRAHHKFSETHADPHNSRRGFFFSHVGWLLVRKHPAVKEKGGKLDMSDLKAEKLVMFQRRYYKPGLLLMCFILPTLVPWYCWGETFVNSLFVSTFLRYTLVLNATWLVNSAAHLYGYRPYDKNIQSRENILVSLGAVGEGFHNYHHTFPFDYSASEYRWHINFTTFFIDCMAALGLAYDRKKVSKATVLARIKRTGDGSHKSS", "experiment": "SCD microsomal assay: release of 3H2O from [9,10-3H]stearoyl-CoA in mouse liver microsomes", "type": "biochemical", "details": "15 min incubation, 25° C.", "source_text": "Measuring Stearoyl-CoA Desaturase Inhibition Activity of a Test Compound Using Mouse Liver Microsomes\nThe identification of compounds of the invention as SCD inhibitors was readily accomplished using the SCD microsomal assay procedure described in Shanklin J. and Summerville C., Proc. Natl. Acad. Sci. USA (1991), Vol. 88, pp. 2510-2514.\nMale ICR outbread mice, on a high-carbohydrate, low fat diet, under light halothane (15% in mineral oil) anesthesia are sacrificed by exsanguination during periods of high enzyme activity. Livers are immediately rinsed with cold 0.9% NaCl solution, weighed and minced with scissors. All procedures are performed at 4° C. unless specified otherwise. Livers are homogenized in a solution (1/3 w/v) containing 0.25 M sucrose, 62 mM potassium phosphate buffer (pH 7.0), 0.15 M KCl, 15 mM N-acetyleysteine, 5 mM MgCl2, and 0.1 mM EDTA using 4 strokes of a Potter-Elvehjem tissue homogenizer. The homogenate is centrifuged at 10,400×g for 20 min to eliminate mitochondria and cellular debris. The supernatant is filtered through a 3-layer cheesecloth and centrifuged at 105,000×g for 60 min. The microsomal pellet is gently resuspended in the same homogenization solution with a small glass/teflon homogenizer and stored at −70° C. The absence of mitochondrial contamination is enzymatically assessed. The protein concentration is measured using bovine serum albumin as the standard.\nDesaturase activity is measured as the release of ^3H2O from [9,10-^3H]stearoyl-CoA. Reactions per assay point conditions are as follows: 2 μL 1.5 mM stearoyl-CoA, 0.25 μL 1 mCi/mL ^3H stearoyl CoA, 10 μL 20 mM NADH, 36.75 μL 0.1 M PK buffer (K2HPO4/NaH2PO4, pH 7.2). The test compound or control solution is added in a 1 μL volume. Reactions are started by adding 50 μL of microsomes (1.25 mg/mL). The plates are mixed and after 15 min incubation on a heating block (25° C.), the reactions are stopped by the addition of 10 μL 60% PCA. An aliquot of 100 μL is then transferred to a filter plate pretreated with charcoal and the plate centrifuged at 4000 rpm for 1 minute. The flow through containing the ^3H2O released by the SCD1 desaturation reaction is added to scintillation fluid and the radioactivity measured in a Packard TopCount. The data is analysed to identify the IC50 for test compounds and reference compounds."}}, "data": [{"smiles": "O=C(NCc1ccccn1)c1ccnc(-n2cnn(Cc3ccc(F)cc3)c2=O)c1", "note": "[Example 26.27, 2-(1-(4-Fluorobenzyl)-5-oxo-1H-1,2,4-triazol-4(5H)-yl)-N-(pyridin-2-ylmethyl)-isonicotinamide]", "values": [{"measurement": "melting point", "result": "181 to 183", "unit": "°C"}, {"measurement": "IC50", "setting": "[1]", "result": 0.12, "unit": "µM"}]}, {"smiles": "NC(=O)c1ccnc(N2CCN(Cc3ccc(F)c(F)c3)C2=O)c1", "note": "[Example 26.30, 2-(3-(3,4-Difluorobenzyl)-2-oxoimidazolidin-1-yl)isonicotinamide]", "values": [{"measurement": "melting point", "result": "195 to 198", "unit": "°C"}, {"measurement": "IC50", "setting": "[1]", "result": 1.1, "unit": "µM"}]}, {"smiles": "NC(=O)c1ccnc(N2CCN(Cc3ccc(C(F)(F)F)cc3)C2=O)c1", "note": "[Example 26.31, 2-(2-Oxo-3-(4-(Trifluoromethyl)-benzyl)imidazolidin-1-yl)isonicotinamide]", "values": [{"measurement": "melting point", "result": "167 to 169", "unit": "°C"}, {"measurement": "IC50", "setting": "[1]", "result": 0.18, "unit": "µM"}]}, {"smiles": "NC(=O)c1ccnc(N2CCN(Cc3ccc(OC(F)(F)F)cc3)C2=O)c1", "note": "[Example 26.32, 2-(2-Oxo-3-(4-(trifluoromethoxy)-benzyl)imidazolidin-1-yl)isonicotinamide]", "values": [{"measurement": "melting point", "result": "175 to 176", "unit": "°C"}, {"measurement": "IC50", "setting": "[1]", "result": 1.2, "unit": "µM"}]}]}
